Experimental data taken from paper PMC5467912, “Asymmetric regulation of quorum-sensing receptors drives autoinducer-specific gene expression programs in Vibrio cholerae” (PLoS Genetics, 2017).
Several values for one entry are separate records, joined by “and”; a condition that tells them apart may be missing. Equal values may be shown once. Read-outs that look alike come from different tables or passages of the source.

Assays:
CqsS = molecular target: T1, CqsS (Vibrio cholerae serotype O1, UniProt Q9KM66); type: cell-based; conditions: Strain WN1102
T1 construct: endogenous in cells; host or cells: V. cholerae WN1102 (ΔcqsA ΔluxQ/pBB1), derived from C6706str2

CqsS F166L = assay: CqsS-dependent repression of qrr4-gfp, CqsS F166L (Fig 7C); type: cell-based, Vibrio cholerae

T1 sequence (Q9KM66 whole entry, looked up): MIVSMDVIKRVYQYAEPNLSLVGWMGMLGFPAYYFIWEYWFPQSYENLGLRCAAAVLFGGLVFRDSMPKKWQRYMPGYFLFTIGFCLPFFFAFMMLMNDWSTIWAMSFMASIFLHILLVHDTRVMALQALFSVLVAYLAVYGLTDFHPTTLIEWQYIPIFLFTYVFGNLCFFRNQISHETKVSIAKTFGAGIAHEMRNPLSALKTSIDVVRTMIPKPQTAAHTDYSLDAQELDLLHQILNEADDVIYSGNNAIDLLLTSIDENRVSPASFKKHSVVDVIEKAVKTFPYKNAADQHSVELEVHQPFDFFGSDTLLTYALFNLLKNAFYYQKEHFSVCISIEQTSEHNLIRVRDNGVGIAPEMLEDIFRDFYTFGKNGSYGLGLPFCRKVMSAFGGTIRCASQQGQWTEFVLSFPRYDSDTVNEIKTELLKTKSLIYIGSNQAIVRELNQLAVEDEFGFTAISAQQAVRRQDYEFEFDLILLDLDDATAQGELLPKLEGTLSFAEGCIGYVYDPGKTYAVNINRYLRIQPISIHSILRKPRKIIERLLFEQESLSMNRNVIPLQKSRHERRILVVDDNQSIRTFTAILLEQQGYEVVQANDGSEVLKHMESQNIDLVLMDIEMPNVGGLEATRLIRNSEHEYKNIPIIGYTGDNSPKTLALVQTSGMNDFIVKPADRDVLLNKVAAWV

For `CCCCCCCCCC(=O)[C@@H](O)CC` [CAI-1, (S)-3-hydroxytridecan-4-one], the RLU (CqsS; CAI-1 0.0119209 nM) was 2.86E+07 RLU, the RLU (CqsS; CAI-1 0.0476837 nM) was 2.99E+07 RLU and the RLU (CqsS; CAI-1 0.190735 nM) was 2.91E+07 RLU. The RLU (CqsS; CAI-1 0.762939 nM) was 2.65E+07 RLU, the RLU (CqsS; CAI-1 3.05176 nM) was 3.77E+07 RLU and the RLU (CqsS; CAI-1 12.207 nM) was 1.29E+08 RLU. It also gave an RLU (CqsS; CAI-1 48.8281 nM) of 1.08E+09 RLU, an RLU (CqsS; CAI-1 195.312 nM) of 1.14E+10 RLU and an RLU (CqsS; CAI-1 781.25 nM) of 7.27E+10 RLU. It also gave an RLU (CqsS; CAI-1 3125 nM) of 1.12E+11 RLU, an RLU (CqsS; CAI-1 12500 nM) of 1.47E+11 RLU and an RLU (CqsS; CAI-1 50000 nM) of 1.61E+11 RLU. For the same compound, the Qrr4-GFP/OD600 (CqsS F166L; Treatment 1uM, CqsS mutant F166L) was 7778886 and 7289924 and 6896372 and the “response (Qrr4-GFP production)” value (CqsS F166L; compounds at 1 μM) was “nearly impervious”.
